In US8980848B2, “Flavonoid dimers and their use” (The Hong Kong Polytechnic University, priority 2010, dated 2015):
Blank lines part the entries; values can stand above or below the compound they belong to.

Legend:
[1] = Tumor cell line cytotoxicity of flavonoid dimers, LCC6MDR; format: cell-based, human; settings: human, LCC6MDR cells, IC50 of compound alone
Protocol: (§1) (b) Tumor Cell Line Cytotoxicity. The tumor cytotoxicity assays of flavonoid dimers were performed against LCC6, LCC6MDR and L929 cell lines. […] In brief, LCC6, LCC6MDR and L929 cells were seeded into 96-well flat bottom microtiter plate at 1×10^4 cells per well in a final volume of 100 μL media, respectively. A graded dose of flavonoid dimers was added into wells. The plate was incubated at 37° C. for 72 hrs at the atmosphere 5% CO2 in the air. The % of survivors was determined.

[2] = Tumor cell line cytotoxicity of flavonoid dimers, LCC6; format: cell-based, human; settings: human, LCC6 cells, IC50 of compound alone
Protocol: as §1

[3] = Cytotoxicity of flavonoid dimers, L929 mouse fibroblast; format: cell-based; settings: mouse, L929 fibroblast cells, IC50 of compound alone, 72 hrs, mouse fibroblast
Protocol: as §1

[4] = system: LdAG83 promastigotes (wild type); test: In vitro anti-promastigote activity, LdAG83; format: cell-based, Leishmania donovani; settings: Leishmania donovani, 72 h, read-out: Anti-promastigotes activity (IC50, μM) LdAG83
Protocol: (§2) Cell Lines and Cell Culture. Promastigotes of Leishmania donovani (wild type LdAG83, pentamidine-resistant LdAG83-PentR50, and SSG-resistant Ld39) and Leishmania major [MHOM/IL/67/JERICHO II (Lm50122), from ATCC] were used in this study.
(§3) In Vitro Anti-Promastigote Activity. The viability of promastigotes was determined by the Cell Titer 96° Aqueous Assay (Promega) that employs a tetrazolium compound (MTS, 2-(4,5-Dimethylthiazol-2-yl-)-5-[3-(carboxymethoxy)phenyl]-2-(4-sulfophenyl)-2H-tetrazolium) and electron coupling reagent, phenazine methosulfate (PMS).^7 Promastigotes were seeded into 96-well flat bottom microtiter plate at 1×10^5 cells per well in a final volume of 100 μL medium and incubated with a series concentration of synthetic flavonoid dimers or known antileishmanials. The parasites were incubated at 27° C. for 72 hrs. Fresh solution of 2 mg/mL MTS and 0.92 mg/mL PMS were prepared in a ratio of 20:1 (MTS:PMS). After 72 hrs incubation, 10 μL of MTS:PMS mixture was added into each well of microtiter plate. The plate was then incubated at 27° C. for 4 hrs for color development. After 4 hrs incubation, the OD values were determined at 490 nm using automatic microtiter plate reader (Bio-Rad).

[5] = system: Ld39 promastigotes (SSG-resistant); test: In vitro anti-promastigote activity, Ld39; format: cell-based, Leishmania donovani; settings: Leishmania donovani, 72 h, read-out: Anti-promastigotes activity (IC50, μM) Ld39
Protocol: as §2, §3

Raw264.7 cells = test: Cytotoxicity, mouse macrophage Raw264.7; format: cell-based; settings: Mus musculus, RAW264.7, 72 h
Protocol: (a) Mouse Macrophage Raw 264.7 and Primary Mouse PEM Cells. The cytotoxicity assay of reference antileishmanial compounds and the compounds of this invention was performed against mouse macrophage cell line, Raw 264.7 and primary mouse PEM cells in order to calculate the therapeutic index (IC50 value for cytotoxicity of the compounds divided by IC50 value for antileishmanial activity of the compounds). The cells were grown in supplemented DMEM media in an atmosphere of 95% air with 5% CO2 at 37° C. In brief, Raw264.7 cells and PEM cells were seeded into 96-well flat bottom microtiter plate at 1×10^4cells and 2×10^4 cells per well in a final volume of 100 μL media, respectively. A graded dose of flavonoid dimers or antileishmanials was added into wells. The plate was incubated at 37° C. for 72 hrs at the atmosphere 5% CO2 in the air. The % of survivors was determined.

Pgp (LCC6MDR cells) = Pgp (LCC6MDR cells) (Homo sapiens, UniProt P08183); test: Cell proliferation assay: Pgp-modulating activity, reversal of anticancer drug resistance in LCC6MDR cells; settings: for RF (Relative Fold), cpd at 0.5 μM: RF = (IC50 without modulator)/(IC50 with 0.5 μM modulator); for RF (Relative Fold), cpd at 0.5 μM / RF (Relative Fold), cpd at 1 μM: paclitaxel; for RF (Relative Fold), cpd at 0.5 μM / EC50 / RF (Relative Fold), cpd at 1 μM: LCC6MDR; for EC50: EC50 of compounds for reversing anticancer drug resistance (nM), Paclitaxel; for Therapeutic index: IC50 of compounds for L929/EC50 of compounds for lowering paclitaxel drug resistance; for RF (Relative Fold), cpd at 1 μM: RF = (IC50 without modulator)/(IC50 with 1.0 μM modulator)
Chain of Pgp (LCC6MDR cells) (P08183 whole entry): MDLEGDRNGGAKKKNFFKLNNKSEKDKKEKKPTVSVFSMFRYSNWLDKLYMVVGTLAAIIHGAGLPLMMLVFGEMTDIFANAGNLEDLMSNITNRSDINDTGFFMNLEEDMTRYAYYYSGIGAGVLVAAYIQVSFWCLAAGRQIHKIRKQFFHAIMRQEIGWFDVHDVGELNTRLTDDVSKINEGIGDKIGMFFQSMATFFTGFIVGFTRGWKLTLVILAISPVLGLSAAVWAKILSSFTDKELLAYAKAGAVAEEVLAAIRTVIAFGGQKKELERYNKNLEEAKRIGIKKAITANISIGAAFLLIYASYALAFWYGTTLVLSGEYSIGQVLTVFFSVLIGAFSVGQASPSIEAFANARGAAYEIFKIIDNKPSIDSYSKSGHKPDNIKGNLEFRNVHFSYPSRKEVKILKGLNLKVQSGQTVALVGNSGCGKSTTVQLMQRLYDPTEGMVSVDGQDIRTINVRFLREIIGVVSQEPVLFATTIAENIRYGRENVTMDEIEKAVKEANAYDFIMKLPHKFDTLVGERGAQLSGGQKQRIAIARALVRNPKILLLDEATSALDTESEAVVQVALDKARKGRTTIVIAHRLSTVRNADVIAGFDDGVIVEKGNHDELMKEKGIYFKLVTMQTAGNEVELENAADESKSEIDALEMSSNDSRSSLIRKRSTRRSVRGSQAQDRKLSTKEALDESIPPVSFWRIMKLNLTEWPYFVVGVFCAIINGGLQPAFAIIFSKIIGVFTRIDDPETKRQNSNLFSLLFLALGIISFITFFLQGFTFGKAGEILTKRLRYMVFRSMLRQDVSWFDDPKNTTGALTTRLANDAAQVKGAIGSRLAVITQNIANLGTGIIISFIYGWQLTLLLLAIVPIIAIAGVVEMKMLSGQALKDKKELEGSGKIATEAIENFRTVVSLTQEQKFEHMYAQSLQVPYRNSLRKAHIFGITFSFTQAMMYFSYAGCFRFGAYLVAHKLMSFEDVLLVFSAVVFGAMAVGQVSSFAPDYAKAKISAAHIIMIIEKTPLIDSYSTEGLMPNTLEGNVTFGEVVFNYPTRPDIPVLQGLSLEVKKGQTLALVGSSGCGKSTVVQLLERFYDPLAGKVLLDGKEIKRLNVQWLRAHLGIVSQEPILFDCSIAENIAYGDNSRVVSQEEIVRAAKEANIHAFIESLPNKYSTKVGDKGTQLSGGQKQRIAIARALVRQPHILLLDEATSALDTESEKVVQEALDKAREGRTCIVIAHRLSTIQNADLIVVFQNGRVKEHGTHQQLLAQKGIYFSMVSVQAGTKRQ
Protocol: Cell Proliferation Assay. 6,000 cells of LCC6 or LCC6MDR and anticancer drugs (paclitaxel, vinblastine, vincristine, doxorubicin and mitoxantrone) were mixed with or without modulators to a final volume of 200 μL in each well of 96-well plates. […] The plates were then incubated for 5 days at 37° C. […] IC50 values were calculated from the dose-response curves of MTS assays (Prism 4.0).

Structure (SMILES): CS(=O)(=O)N(CCOCCOc1ccc(-c2cc(=O)c3ccccc3o2)cc1)CCOCCOc1ccc(-c2cc(=O)c3ccccc3o2)cc1 [Compound 24, 1,13-Bis[4′-(4H-chromen-4-on-2-yl)phenyl]-N-(methanesulfonyl)-1,4,10,13-tetraoxa-7-azamidecane]
IC50 at 72 h [1]: 42.6 ± 5.4 µM
IC50 at 72 h [2]: 27.5 ± 8.4 µM
IC50 at 72 h [3]: 13.4 ± 3.9 µM
IC50 [4]: 0.5 µM
IC50 [5]: 1.5 µM
IC50 (Raw264.7 cells): 96 ± 4 µM
RF (Relative Fold), cpd at 0.5 μM (Pgp (LCC6MDR cells)): (12.8)

melting point: 72 to 74 °C
Structure (SMILES): CN(C)c1cccc2c(S(=O)(=O)N(CCOCCOc3ccc(-c4cc(=O)c5ccccc5o4)cc3)CCOCCOc3ccc(-c4cc(=O)c5ccccc5o4)cc3)cccc12 [Compound 25b, 1,13-Bis[4′-(4H-chromen-4-on-2-yl)phenyl]-7-(dansyl)-1,4,10,13-tetraoxa-7-azamidecane]
IC50 at 72 h [1]: > 100 µM
IC50 at 72 h [2]: > 100 µM
RF (Relative Fold), cpd at 0.5 μM (Pgp (LCC6MDR cells)): (1.4)

Structure (SMILES): O=c1cc(-c2ccc(OCCOCCN(CCCc3ccccc3)CCOCCOc3ccc(-c4cc(=O)c5ccccc5o4)cc3)cc2)oc2ccccc12 [Compound 26, 1,13-Bis[4′-(4H-chromen-4-on-2-yl)phenyl]-N-(3-phenylpropyl)-1,4,10,13-tetraoxa-7-azamidecane]
IC50 at 72 h [1]: > 100 µM
IC50 at 72 h [2]: > 100 µM
IC50 at 72 h [3]: 9.5 µM
IC50 [4]: 8.9 µM
IC50 [5]: 18.4 µM
IC50 (Raw264.7 cells): 85 µM
EC50 (Pgp (LCC6MDR cells)): 250 nM
Therapeutic index (Pgp (LCC6MDR cells)): 38.0
RF (Relative Fold), cpd at 0.5 μM (Pgp (LCC6MDR cells)): (12.5)

melting point: 119 to 122 °C
EC50 (Pgp (LCC6MDR cells)): 255 ± 5 nM
Structure (SMILES): O=c1cc(-c2ccc(OCCOCCN(CCOCCOc3ccc(-c4cc(=O)c5ccccc5o4)cc3)Cc3ccc(F)cc3)cc2)oc2ccccc12 [Compound 34, 1,13-Bis[4′-(4H-chromen-4-on-2-yl)phenyl]-7-(4-fluorobenzyl)-1,4,10,13-tetraoxa-7-azamidecane]
IC50 at 72 h [1]: > 83 µM
IC50 at 72 h [2]: > 100 µM
IC50 at 72 h [3]: 19.7 µM
Therapeutic index (Pgp (LCC6MDR cells)): 77.3
RF (Relative Fold), cpd at 0.5 μM (Pgp (LCC6MDR cells)): (31.2)

melting point: 96 to 98 °C
Structure (SMILES): O=c1cc(-c2ccc(OCCOCCN(CCOCCOc3ccc(-c4cc(=O)c5ccccc5o4)cc3)Cc3ccc(F)c(F)c3)cc2)oc2ccccc12 [Compound 38, 1,13-Bis[4′-(4H-chromen-4-on-2-yl)phenyl]-7-(3,4-difluorobenzyl)-1,4,10,13-tetraoxa-7-azamidecane]
IC50 at 72 h [1]: 33.6 ± 4.3 µM
IC50 at 72 h [2]: 32.5 ± 11 µM
IC50 at 72 h [3]: 42.2 ± 2.1 µM
RF (Relative Fold), cpd at 0.5 μM (Pgp (LCC6MDR cells)): (49.3)

melting point: 69 to 70 °C
EC50 (Pgp (LCC6MDR cells)): 204 ± 20 nM
Structure (SMILES): O=c1cc(-c2ccc(OCCOCCN(CCOCCOc3ccc(-c4cc(=O)c5ccccc5o4)cc3)Cc3ccc4c(c3)OCO4)cc2)oc2ccccc12 [Compound 42e, 1,13-Bis[4′-(4H-chromen-4-on-2-yl)phenyl]-7-(5-piperonyl)-1,4,10,13-tetraoxa-7-azamidecane]
IC50 at 72 h [1]: > 100 µM
IC50 at 72 h [2]: > 100 µM
IC50 at 72 h [3]: > 100 µM
Therapeutic index (Pgp (LCC6MDR cells)): >490.2
RF (Relative Fold), cpd at 0.5 μM (Pgp (LCC6MDR cells)): (31.2)
RF (Relative Fold), cpd at 1 μM (Pgp (LCC6MDR cells)): (117.8)

melting point: 81 to 82 °C
EC50 (Pgp (LCC6MDR cells)): 177 ± 14 nM
Structure (SMILES): O=c1cc(-c2ccc(OCCOCCN(CCOCCOc3ccc(-c4cc(=O)c5ccccc5o4)cc3)Cc3ccc(Cl)cc3)cc2)oc2ccccc12 [Compound 49, 1,13-Bis[4′-(4H-chromen-4-on-2-yl)phenyl]-7-(4-chlorobenzyl)-1,4,10,13-tetraoxa-7-azamidecane]
IC50 at 72 h [1]: > 100 µM
IC50 at 72 h [2]: > 100 µM
IC50 at 72 h [3]: > 78 µM
Therapeutic index (Pgp (LCC6MDR cells)): >440.7
RF (Relative Fold), cpd at 0.5 μM (Pgp (LCC6MDR cells)): (41.4)
RF (Relative Fold), cpd at 1 μM (Pgp (LCC6MDR cells)): (95.7)

Structure (SMILES): O=c1cc(-c2ccc(OCCOCCN(CCOCCOc3ccc(-c4cc(=O)c5ccccc5o4)cc3)Cc3ccnc(Br)c3)cc2)oc2ccccc12 [Compound 64b, 1,13-Bis[4′-(4H-chromen-4-on-2-yl)phenyl]-7-(4-(2-bromopyridyl)methyl)-1,4,10,13-tetraoxa-7-azamidecane]
IC50 at 72 h [1]: > 100 µM
IC50 at 72 h [2]: > 100 µM
IC50 at 72 h [3]: > 100 µM
RF (Relative Fold), cpd at 0.5 μM (Pgp (LCC6MDR cells)): (8.4)
RF (Relative Fold), cpd at 1 μM (Pgp (LCC6MDR cells)): (76.6)

Structure (SMILES): N#Cc1cc(CN(CCOCCOc2ccc(-c3cc(=O)c4ccccc4o3)cc2)CCOCCOc2ccc(-c3cc(=O)c4ccccc4o3)cc2)ccn1 [Compound 64c, 1,13-Bis[4′-(4H-chromen-4-on-2-yl)phenyl]-7-(4-(2-cyanopyridyl)methyl)-1,4,10,13-tetraoxa-7-azamidecane]
IC50 at 72 h [1]: > 100 µM
IC50 at 72 h [2]: > 100 µM
IC50 at 72 h [3]: > 50 µM
RF (Relative Fold), cpd at 0.5 μM (Pgp (LCC6MDR cells)): (19.4)
RF (Relative Fold), cpd at 1 μM (Pgp (LCC6MDR cells)): (66.6)

Structure (SMILES): O=c1cc(-c2ccc(OCCOCCN(CCOCCOc3ccc(-c4cc(=O)c5ccccc5o4)cc3)Cc3ccncc3Br)cc2)oc2ccccc12 [Compound 64d, 1,13-Bis[4′-(4H-chromen-4-on-2-yl)phenyl]-7-(4-(3-bromopyridyl)methyl)-1,4,10,13-tetraoxa-7-azamidecane]
IC50 at 72 h [1]: > 100 µM
IC50 at 72 h [2]: > 100 µM
IC50 at 72 h [3]: > 50 µM
RF (Relative Fold), cpd at 0.5 μM (Pgp (LCC6MDR cells)): (10.6)
RF (Relative Fold), cpd at 1 μM (Pgp (LCC6MDR cells)): (61.2)

Structure (SMILES): O=c1cc(-c2ccc(OCCOCCN(CCOCCOc3ccc(-c4cc(=O)c5ccccc5o4)cc3)Cc3ccncn3)cc2)oc2ccccc12 [Compound 64e, 1,13-Bis[4′-(4H-chromen-4-on-2-yl)phenyl]-7-(4-pyrimidinylmethyl)-1,4,10,13-tetraoxa-7-azamidecane]
IC50 at 72 h [1]: > 50 µM
IC50 at 72 h [2]: > 50 µM
IC50 at 72 h [3]: > 50 µM
RF (Relative Fold), cpd at 0.5 μM (Pgp (LCC6MDR cells)): (8.3)
RF (Relative Fold), cpd at 1 μM (Pgp (LCC6MDR cells)): (61.2)

Structure (SMILES): O=c1cc(-c2ccc(OCCOCCN(CCOCCOc3ccc(-c4cc(=O)c5ccccc5o4)cc3)Cc3ccnc4ccccc34)cc2)oc2ccccc12 [Compound 64f, 1,13-Bis[4′-(4H-chromen-4-on-2-yl)phenyl]-7-(4-quinolinylmethyl)-1,4,10,13-tetraoxa-7-azamidecane]
IC50 at 72 h [1]: > 100 µM
IC50 at 72 h [2]: > 100 µM
IC50 at 72 h [3]: > 100 µM
RF (Relative Fold), cpd at 0.5 μM (Pgp (LCC6MDR cells)): (15.9)
RF (Relative Fold), cpd at 1 μM (Pgp (LCC6MDR cells)): (69.6)

Structure (SMILES): O=c1cc(-c2ccc(OCCOCCN(CCOCCOc3ccc(-c4cc(=O)c5ccccc5o4)cc3)Cc3ccc4ccccc4n3)cc2)oc2ccccc12 [Compound 64g, 1,13-Bis[4′-(4H-chromen-4-on-2-yl)phenyl]-7-(2-quinolinylmethyl)-1,4,10,13-tetraoxa-7-azamidecane]
IC50 at 72 h [1]: > 100 µM
IC50 at 72 h [2]: > 100 µM
IC50 at 72 h [3]: 8.5 ± 2.3 µM
RF (Relative Fold), cpd at 0.5 μM (Pgp (LCC6MDR cells)): (66.6)
RF (Relative Fold), cpd at 1 μM (Pgp (LCC6MDR cells)): (102.1)

Structure (SMILES): O=c1cc(-c2ccc(OCCOCCN(CCOCCOc3ccc(-c4cc(=O)c5ccccc5o4)cc3)c3ccccc3)cc2)oc2ccccc12 [Compound 64h, 1,13-Bis[4′-(4H-chromen-4-on-2-yl)phenyl]-7-(phenyl)-1,4,10,13-tetraoxa-7-azamidecane]
IC50 at 72 h [1]: > 100 µM
IC50 at 72 h [2]: > 100 µM
IC50 at 72 h [3]: > 100 µM
RF (Relative Fold), cpd at 0.5 μM (Pgp (LCC6MDR cells)): (11.6)
RF (Relative Fold), cpd at 1 μM (Pgp (LCC6MDR cells)): (72.9)
